Laboratory results: US20250041377A1, “PHARMACEUTICAL USE” (ENLITISA (SHANGHAI) PHARMACEUTICAL CO., LTD., priority 2018, published 2025)
Where a SMILES comes first, the peptide text is derived from it. Where no end group is shown, it is not given here. [ ]: non-standard residue; d: D form. Dopa = N[C@@H](Cc1ccc(O)c(O)c1)C(=O)O; Hyp = O=C(O)[CH]1C[CH](O)CN1; 3Hyp = 3-hydroxyproline

Legend:
[1] = system: Hyp, VEGF and TGF-β1 in wound tissue; assay: Acute wound model, ELISA of wound tissue; type: in vivo, C57BL/6 mice; conditions: for wound Hyp content (Mean): indicator of collagen regeneration; for TGF-β1 content (Mean): wound tissue
From the text: The model group was given same amount of normal saline. There were 8 mice in each group.
Samples were taken at Day 4 and Day 7 post-wound infliction. The mice were sacrificed and the wound tissue taken by the same biopsy punch used to create the wound. Then 5 mm of tissue was cut off from the center of the sample and was preserved in 10% neutral buffered formalin (Nanchang Rain Dew Experimental Equipment Co., Ltd., Nanchang, Hubei Province, China), and analyzed by histological embedding (HE) in paraffin wax, sectioning and staining.
The rest of the samples were stored at −80° C. for further analysis. Tissue was cut into small pieces and liquid nitrogen was added to increase brittleness. 9 mL of normal saline was added to 1 g of tissue, which was then ground using a Tissuelyser (Shanghai Jingxin Industrial Development Co., Ltd., Shanghai, China) at 55 Hz for 60 seconds, followed by centrifuging at 8000 rpm for 10 minutes at 4° C.
The supernatant was collected, and the extracted protein was used for ELISA analysis using standard ELISA test kits and an ELISA reader (SH-1000 Hitachi, Japan). Vascular endothelial growth factor (VEGF), transforming growth factor beta 1 (TGF-β1) and hydroxyproline (Hyp) were assayed. The ELISA kits were purchased from Beijing 4A Biotech Co., Ltd. (Beijing, China).

[2] = DPPH assay of antioxidant capacity; conditions: 200 μL peptide solution in 3.8 mL 0.06 mg/mL DPPH; 1.5 hours, room temperature, dark; absorbance 517 nm
Description: The antioxidant capacity of Compound B was determined using a 2,2-diphenyl-1-(2,4,6-trinitrophenyl) hydrazyl (DPPH) assay.
Compounds A and B were obtained as described in Example 3 above. The peptide powders were stored at −20° C. and dissolved in saline at concentrations as indicated below. DPPH was purchased from Sigma-Aldrich China, Shanghai. Other reagents employed and identified below were purchased from Shanghai Aladdin Bio-Chem Technology Co. Ltd., China.
The DPPH method is one of the most commonly used methods in determination of antioxidant capacity. DPPH is a stable, nitrogen-centred free radical with a dark purple solution and a maximum absorption peak at 517 nm. When a free radical scavenger is present in the reaction system, it can be paired with a single electron of DPPH., and the absorption peak at 517 nm is gradually dissipated.
The degree of colour change bears a stoichiometric relationship to the number of paired electrons. Thus, antioxidant activity can be measured according to the change of absorbance. The greater the inhibition rate, the stronger the antioxidant capacity. […]
200 μL of peptide solution was added to 3.8 mL of the DPPH solution. […] The absorbance at 517 nm was measured and was denoted as A1. The absorbance of the blank control sample was denoted as A0. Thus, the percentage of the […] is calculated as: Clearance rate (%)=[A0−A1]/A0×100

[3] = Stability in phosphate buffer at different pHs (colour, HPLC peak area, purity); type: physicochemical; set-up: key to change of colour: NO means no colour changed was observed; + means a slight colour change is observed; ++ means a significant colour change is observed; conditions: for stability (overall result): phosphate buffer pH 5.3, 7.2, 8.1, room temperature then 45° C., 6 days
Description: Stabilities of Compounds A and B (obtained as described in Examples 1 and 3 above) were tested as follows.
10 mg of the compounds were each dissolved in 1 mL of distilled water to make a stock solution with a concentration of 10 mg/mL. Then, 200 μL of the stock solutions were diluted with 20 mM phosphate buffer (PB; Sigma-Aldrich China) with different pHs as indicated in Table 8 below.
All of the samples above were filtered through a 0.22 μm membrane (SLGV033RS; Sigma-Aldrich China) to remove potential bacteria in the solution on a super-clean bench after being prepared.
All the samples above were stored at room temperature and, three days later, were transferred to a 45° C. oven after initial sample analysis by HPLC (Column: Angilent ZORBAX Eclipse XDB-C18 (4.6×250 mm; 5 μm) (SN: USNH008244); buffer: A: 0.1% TFA in Water; B: 0.1% TFA in ACN; gradient: 0-25 minutes: 5%-30% B; 25-30 min: 100% B; flow rate: 1 mL/min; detection wavelength: 220 nm; sample volume: 20 μL).
The stability of the above samples was studied by observing the change of colour (Table 9), HPLC peak areas (Table 10) and purity (Table 11). The pH values for all samples were measured as being stable during the testing period.

[4] = 20 mM phosphate buffer pH 5.3, Day 0
[5] = 20 mM phosphate buffer pH 7.2, Day 0
[6] = 20 mM phosphate buffer pH 8.1, Day 0
[7] = pH 5.3, Day 1, room temperature
[8] = pH 5.3, Day 3 (Transfer to 45° C.)
[9] = pH 7.2, Day 1, room temperature
[10] = pH 7.2, Day 3 (Transfer to 45° C.)
[11] = pH 8.1, Day 1, room temperature
[12] = pH 8.1, Day 3 (Transfer to 45° C.)

## CC(N)C(=O)NC(CCCCN)C(=O)N1CCCC1C(=O)NC(CO)C(=O)NC(Cc1ccc(O)cc1)C(=O)N1CC(O)CC1C(=O)N1CC(O)CC1C(=O)NC(C(=O)NC(Cc1ccc(O)cc1)C(=O)NC(CCCCN)C(=O)O)C(C)O (stereo not drawn) [Compound B, Ala-Lys-Pro-Ser-Tyr-Hyp-Hyp-Thr-Tyr-Lys] (H-AKPSY[Hyp][Hyp]TYK-OH; configuration not given here)
[1]; Day 4
  wound Hyp content (Mean): 2.039 µg/mg
  TGF-β1 content (Mean): 20571.8 pg/g
[1]; Day 7
  wound Hyp content (Mean): 2.810 µg/mg
  TGF-β1 content (Mean): 18659.6 pg/g
[1]; in comparison with model group
  increase of VEGF production in the wounded tissue: about 56.7%
[2]
  DPPH clearance rate: 8.9%
[3]; [4]
  HPLC peak area as area % of Day 0's result: 100%
  change of colour: NO
  purity (HPLC) in stability study: 99.2%
[3]; [5]
  change of colour: NO
  purity (HPLC) in stability study: 99.6%
[3]; [6]
  HPLC peak area as area % of Day 0's result: 100%
  change of colour: NO
  purity (HPLC) in stability study: 99.5%
[3]; at pH 7.2 and pH 8.1
  HPLC peak areas over time: decreased significantly
[3]; [7]
  HPLC peak area as area % of Day 0's result: 100.0%
  change of colour: NO
  purity (HPLC) in stability study: 99.2%
[3]; [8]
  HPLC peak area as area % of Day 0's result: 99.9%
  change of colour: NO
  purity (HPLC) in stability study: 98.4%
[3]; pH 5.3, Day 6 (45° C.)
  HPLC peak area as area % of Day 0's result: 102.4%
  change of colour: NO
  purity (HPLC) in stability study: 99.0%
[3]; [9]
  change of colour: NO
  purity (HPLC) in stability study: 99.3%
[3]; [10]
  HPLC peak area as area % of Day 0's result: 100%
  change of colour: NO
  purity (HPLC) in stability study: 98.7%
[3]; pH 7.2, Day 6 (45° C.)
  HPLC peak area as area % of Day 0's result: 100.6%
  change of colour: NO
  purity (HPLC) in stability study: 98.2%
[3]; [11]
  HPLC peak area as area % of Day 0's result: 98.9%
  change of colour: NO
  purity (HPLC) in stability study: 99.4%
[3]; [12]
  HPLC peak area as area % of Day 0's result: 99.2%
  change of colour: NO
  purity (HPLC) in stability study: 98.4%
[3]; pH 8.1, Day 6 (45° C.)
  HPLC peak area as area % of Day 0's result: 97.0%
  change of colour: NO
  purity (HPLC) in stability study: 96.4%
[3]
  stability (overall result): stable at all pH values
[3]; three samples, pH 5.3, 7.2, 8.1
  HPLC peak areas over time: almost unchanged

## Ala-Lys-Pro-Ser-Tyr-Hyp-Hyp-Thr-DOPA-Lys (AKPSY[3Hyp][Hyp]T[Dopa]K; listed as Mytilus edulis) [Compound A]
[1]; Day 4
  wound Hyp content (Mean): 3.676 µg/mg
  TGF-β1 content (Mean): 11866.2 pg/g
[1]; Day 7
  wound Hyp content (Mean): 2.694 µg/mg
  TGF-β1 content (Mean): 18074.8 pg/g
[2]
  DPPH clearance rate: 52.11%
[3]; [4]
  HPLC peak area as area % of Day 0's result: 100%
  change of colour: NO
  purity (HPLC) in stability study: 99.4%
[3]; [5]
  HPLC peak area as area % of Day 0's result: 100%
  change of colour: NO
  purity (HPLC) in stability study: 98.9%
[3]; [6]
  HPLC peak area as area % of Day 0's result: 100%
  change of colour: NO
  purity (HPLC) in stability study: 96.3%
[3]; at pH 7.2 and pH 8.1
  oxidation judged by HPLC purity: most of Compound A was oxidized
[3]; [7]
  HPLC peak area as area % of Day 0's result: 100.1%
  change of colour: NO
  purity (HPLC) in stability study: 99.2%
[3]; [8]
  HPLC peak area as area % of Day 0's result: 100.3%
  change of colour: NO
  purity (HPLC) in stability study: 99.4%
[3]; pH 5.3, Day 6 (45° C.)
  HPLC peak area as area % of Day 0's result: 99.6%
  change of colour: NO
  purity (HPLC) in stability study: 98.0%
[3]; [9]
  HPLC peak area as area % of Day 0's result: 89.0%
  change of colour: +
  purity (HPLC) in stability study: 92.1%
[3]; [10]
  HPLC peak area as area % of Day 0's result: 41.7%
  change of colour: +
  purity (HPLC) in stability study: 94.8%
[3]; pH 7.2, Day 6 (45° C.)
  HPLC peak area as area % of Day 0's result: 11.5%
  change of colour: ++
  purity (HPLC) in stability study: 13.8%
[3]; [11]
  HPLC peak area as area % of Day 0's result: 64.8%
  change of colour: ++
  purity (HPLC) in stability study: 61.0%
[3]; [12]
  HPLC peak area as area % of Day 0's result: 21.7%
  change of colour: ++
  purity (HPLC) in stability study: 52.5%
[3]; pH 8.1, Day 6 (45° C.)
  HPLC peak area as area % of Day 0's result: 3.8%
  change of colour: ++
  purity (HPLC) in stability study: 3.9%
[3]
  stability (overall result): stable only at pH 5.3
